Structures can show the parent of a compound that is named as a salt. Where two headings read alike, the source gives them in different places.
What was measured:
Type in all cases: biochemical
[1] = biological target: MASP-2 (Homo sapiens (Human), UniProt O00187); test: MASP-2 inhibition (Ki)
[2] = biological target: Thrombin (Homo sapiens (Human), UniProt P00734); test: Thrombin inhibition (Ki); conditions: for Ki: read-out: Thrombin Ki
[3] = biological target: human α-thrombin (Homo sapiens (Human), UniProt P00734); test: Enzymatic assay for thrombin (Boc-VPR-AMC substrate)
[4] = biological target: MASP-2 (CCP1-CCP2-SP) (Homo sapiens (Human), UniProt O00187); test: biochemical; conditions: for MASP-2 vs. thrombin selectivity: selectivity for MASP-2 inhibition versus thrombin
Sequence of MASP-2 (CCP1-CCP2-SP) (O00187 445-686): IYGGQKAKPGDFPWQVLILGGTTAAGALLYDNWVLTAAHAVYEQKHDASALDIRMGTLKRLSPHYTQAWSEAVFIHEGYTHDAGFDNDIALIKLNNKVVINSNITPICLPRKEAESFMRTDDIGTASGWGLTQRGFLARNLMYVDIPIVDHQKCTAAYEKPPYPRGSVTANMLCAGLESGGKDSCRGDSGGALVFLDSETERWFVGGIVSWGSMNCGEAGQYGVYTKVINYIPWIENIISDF

[5] = biological target: mMASP-2 (Mus musculus (Mouse), UniProt Q91WP0); test: Enzymatic inhibition of mMASP-2
Sequence of mMASP-2 (Q91WP0 20-685): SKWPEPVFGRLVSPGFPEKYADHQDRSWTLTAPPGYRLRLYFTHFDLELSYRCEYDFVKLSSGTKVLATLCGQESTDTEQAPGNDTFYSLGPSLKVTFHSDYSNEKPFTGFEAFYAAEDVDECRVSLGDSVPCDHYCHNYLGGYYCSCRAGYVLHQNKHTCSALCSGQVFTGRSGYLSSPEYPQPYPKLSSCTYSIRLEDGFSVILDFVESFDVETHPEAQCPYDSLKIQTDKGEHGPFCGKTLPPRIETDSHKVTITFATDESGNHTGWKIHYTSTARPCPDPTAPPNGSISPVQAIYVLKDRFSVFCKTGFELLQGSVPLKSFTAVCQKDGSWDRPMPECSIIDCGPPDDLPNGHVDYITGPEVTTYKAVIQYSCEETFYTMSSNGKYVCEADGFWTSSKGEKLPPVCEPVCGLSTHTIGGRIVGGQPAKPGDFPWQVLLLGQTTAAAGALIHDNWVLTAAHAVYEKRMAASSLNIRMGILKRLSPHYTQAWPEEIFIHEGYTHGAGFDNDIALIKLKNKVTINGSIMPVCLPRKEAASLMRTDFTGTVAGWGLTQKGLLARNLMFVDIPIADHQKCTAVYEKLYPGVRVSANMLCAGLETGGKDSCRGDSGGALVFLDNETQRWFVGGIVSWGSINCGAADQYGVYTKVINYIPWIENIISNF

[6] = system: Lectin Pathway; test: Lectin pathway activation assay in human serum (mannan-coated ELISA, C3c detection); conditions: 1% human serum

Sequence of MASP-2 (O00187 16-686): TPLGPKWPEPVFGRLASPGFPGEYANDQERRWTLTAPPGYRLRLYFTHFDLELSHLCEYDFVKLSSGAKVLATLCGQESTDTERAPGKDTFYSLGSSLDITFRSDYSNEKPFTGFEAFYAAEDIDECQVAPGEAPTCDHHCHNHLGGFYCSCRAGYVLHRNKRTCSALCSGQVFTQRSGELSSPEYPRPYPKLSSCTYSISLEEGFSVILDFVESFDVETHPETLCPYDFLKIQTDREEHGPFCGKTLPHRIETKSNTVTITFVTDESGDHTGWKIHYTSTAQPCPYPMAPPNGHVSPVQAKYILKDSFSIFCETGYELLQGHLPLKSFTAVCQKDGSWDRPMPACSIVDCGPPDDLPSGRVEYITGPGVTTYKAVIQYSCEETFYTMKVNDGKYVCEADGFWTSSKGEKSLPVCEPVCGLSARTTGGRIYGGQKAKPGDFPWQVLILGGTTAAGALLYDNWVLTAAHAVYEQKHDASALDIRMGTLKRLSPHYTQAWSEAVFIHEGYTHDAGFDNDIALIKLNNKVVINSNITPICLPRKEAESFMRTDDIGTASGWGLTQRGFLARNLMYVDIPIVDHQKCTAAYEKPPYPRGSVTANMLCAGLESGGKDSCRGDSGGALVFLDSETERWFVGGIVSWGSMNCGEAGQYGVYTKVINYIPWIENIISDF

For Cc1ccccc1C1=N/C(=C\c2ccco2)C(=O)O1 [compound 1], the Ki [1] was less than 10 µM and the Ki [2] was less than 10 µM.
For Cc1ccc(/C=C2\N=C(c3ccccc3F)OC2=O)o1 [compound 2], the Ki [1] was less than 10 µM and the Ki [2] was 25 to 100 µM.
Compound COc1ccc(/C=C2\N=C(c3ccccc3OC)OC2=O)cc1OC [compound 3] has a Ki [1] of 25 to 100 µM and a Ki [2] of less than 10 µM.
Compound COc1ccccc1C1=N/C(=C\c2cc(OC)c(OC)c(OC)c2)C(=O)O1 [compound 4] has a Ki [1] of less than 10 µM and a Ki [2] of 25 to 100 µM.
In the case of COc1ccccc1C1=N/C(=C\c2cccs2)C(=O)O1 [compound 5], the Ki [1] is reported as 10 to 25 µM.
With O=C1OC(/C=C/c2ccccc2)=NC/1=C\c1ccco1 [compound 6] the Ki [1] was less than 10 µM and the Ki [2] was 25 to 100 µM.
In the case of O=C(NNC(=O)c1cc2ccccc2cc1O)c1ccco1 [compound 7], the Ki [1] is reported as less than 10 µM and the Ki [2] is reported as less than 10 µM.
Work on Cc1c(C(=O)Nc2ccccc2C(=O)O)cccc1[N+](=O)[O-] [compound 9] yielded a Ki [1] of less than 10 µM and a Ki [2] of less than 10 µM.
O=c1oc(-c2cccs2)nc2ccccc12 [compound 10] gave a Ki [1] of less than 10 µM and a Ki [2] of 25 to 100 µM.
O=c1oc(-c2ccco2)nc2cc(Cl)ccc12 [compound 11] was tested, and the Ki [1] was less than 10 µM and the “Thrombin Ki (μM)” value [2] was “No Activity”.
Cc1cc(=O)oc2cc(OC(=O)c3ccco3)ccc12 [compound 12] gave a Ki [1] of less than 10 µM and a Ki [2] of less than 10 µM.
With CCOC(=O)c1ccc2c(c1)C1C=CCC1C(C(=O)O)N2 (centres unmarked) [compound 13] the Ki [1] was 25 to 100 µM and the “Thrombin Ki (μM)” value [2] was “No activity”.
For O=c1oc(-c2ccccc2[N+](=O)[O-])nc2ccccc12 [compound 14], the Ki [1] was less than 10 µM and the Ki [2] was less than 10 µM.
With COc1cccc2c1NC(C(=O)O)C1CC=CC21 (centres unmarked) [compound 15] the Ki [1] was 25 to 100 µM and the “Thrombin Ki (μM)” value [2] was “No activity”.
With O=C(O)c1cc(N2N=C(C(F)(F)F)/C(=C\C=C\c3ccco3)C2=O)ccc1Cl [compound 16] the Ki [1] was 25 to 100 µM and the “Thrombin Ki (μM)” value [2] was “No activity”.
Cc1c(/N=C/c2ccc(OC(=O)c3ccccn3)cc2)c(=O)n(-c2ccccc2)n1C [compound 17] showed a Ki [1] of less than 10 µM and a Ki [2] of 25 to 100 µM.
Compound Cc1cccc2c(=O)oc(-c3ccccc3Cl)nc12 [compound 18] has a Ki [1] of less than 10 µM and a Ki [2] of less than 10 µM.
O=c1oc(-c2ccco2)nc2scc(-c3cccs3)c12 [compound 19] showed a Ki [1] of less than 10 µM and a Ki [2] of 25 to 100 µM.
With O=C(Oc1ccc([N+](=O)[O-])cc1)c1ccc(Br)o1 [compound 20] the Ki [1] was less than 10 µM and the “Thrombin Ki (μM)” value [2] was “No Activity”.
In the case of O=Cc1ccc(OC(=O)c2ccco2)cc1 [compound 21], the Ki [1] is reported as less than 10 µM and the Ki [2] is reported as less than 10 µM.
For O=C(O)C1Nc2c(O)cc(Cl)c([N+](=O)[O-])c2C2C=CCC12 (centres unmarked) [compound 22], the Ki [1] was 10 to 25 µM and the “Thrombin Ki (μM)” value [2] was “No Activity”.
In the case of CCCc1nnc(NC(CC)OC(=O)c2cc(C)nc3ccccc23)s1 (centres unmarked) [compound 23], the Ki [1] is reported as less than 10 µM and the “Thrombin Ki (μM)” value [2] is reported as “No Activity”.
COC(=O)c1cn(C(=O)c2cc(OC)cc(OC)c2)nc1N [compound 24] showed a Ki [1] of less than 10 µM and a Ki [2] of 10 to 25 µM.
For O=C1c2ccccc2C(=O)N1Oc1ccc(C(F)(F)F)cc1[N+](=O)[O-] [compound 35], the Ki [1] was 25 to 100 µM.
For O=C(O)/C=C/C=C/c1ccco1 [compound 38], the Ki [1] was 10 to 25 µM.
With C[C@H](NC(=O)[C@H]1C[C@H](Cc2ccccc2)CN1)C(=O)NCc1cnc2[nH]cc(Cl)c2c1 [compound 1334, (2R,4S)-4-Benzyl-N-((S)-1-(((3-chloro-1H-pyrrolo[2,3-b]pyridin-5-yl)methyl)amino)-1-oxopropan-2-yl)pyrrolidine-2-carboxamide Di-hydrochloride] the “selectivity for MASP-2 over thrombin” value ([1]; MASP-2 vs thrombin) was “MASP-2 selective”, the Ki ([3]; read-out: Thrombin Ki) was less than 0.5 µM and the Ki ([4]; read-out: MASP-2 Ki) was less than 500 nM. For the same compound, the “MASP-2 vs. thrombin selectivity” value [4] was “−− (<1.0-fold)” and the Ki ([5]; read-out: mMASP-2 Ki) was less than 500 nM.
Cc1nc(N)ccc1CNC(=O)[C@H](C)NC(=O)[C@H]1C[C@H](Oc2ccc(Br)cc2)CN1 [compound 1445, (2R,4S)—N—((S)-1-(((6-Amino-2-methylpyridin-3-yl)methyl)amino)-1-oxopropan-2-yl)-4-(4-bromophenoxy)pyrrolidine-2-carboxamide Dihydrochloride] gave an IC50 [6] of 5 to 50 µM, a Ki ([3]; read-out: Thrombin Ki) greater than 25 µM and a Ki ([4]; read-out: MASP-2 Ki) of less than 500 nM. The “MASP-2 vs. thrombin selectivity” value [4] was “**** (≥100-fold)” and the Ki ([5]; read-out: mMASP-2 Ki) was 500 to 2500 nM.
In the case of Cc1nc(N)ccc1CNC(=O)[C@H](C)NC(=O)[C@H]1C[C@H](Oc2ccccc2)CN1 [compound 1446, (2R,4S)—N—((S)-1-(((6-Amino-2-methylpyridin-3-yl)methyl)amino)-1-oxopropan-2-yl)-4-phenoxypyrrolidine-2-carboxamide], the IC50 [6] is reported as 5 to 50 µM, the Ki ([3]; read-out: Thrombin Ki) is reported as greater than 25 µM and the Ki ([4]; read-out: MASP-2 Ki) is reported as less than 500 nM. The “MASP-2 vs. thrombin selectivity” value [4] was “**** (≥100-fold)” and the Ki ([5]; read-out: mMASP-2 Ki) was 500 to 2500 nM.
In the case of Cc1nc(N)ccc1CNC(=O)[C@H](C)NC(=O)[C@H]1C[C@H](Cc2ccc(F)cc2)CN1 [compound 1447, (2R,4S)—N—((S)-1-(((6-Amino-2-methylpyridin-3-yl)methyl)amino)-1-oxopropan-2-yl)-4-(4-fluorobenzyl)pyrrolidine-2-carboxamide Di-trifluoroacetate salt], the IC50 [6] is reported as 0.5 to 5 µM, the Ki ([3]; Thrombin Ki (μM)) is reported as 2.5 to 10 µM and the Ki ([4]; read-out: MASP-2 Ki) is reported as less than 500 nM. For the same compound, the “MASP-2 vs. thrombin selectivity” value [4] was “**** (≥100-fold)” and the Ki ([5]; read-out: mMASP-2 Ki) was less than 500 nM.
In the case of Cc1nc(N)ccc1CNC(=O)[C@H](C)NC(=O)[C@H]1C[C@H](Cc2ccc3nsnc3c2)CN1 [compound 1449, (2R,4S)—N—((S)-1-(((6-Amino-2-methylpyridin-3-yl)methyl)amino)-1-oxopropan-2-yl)-4-(benzo[c][1,2,5]thiadiazol-5-ylmethyl)pyrrolidine-2-carboxamide Di-trifluoroacetate salt], the IC50 [6] is reported as 0.5 to 5 µM, the Ki ([3]; Thrombin Ki (μM)) is reported as 2.5 to 10 µM and the Ki ([4]; read-out: MASP-2 Ki) is reported as less than 500 nM. For the same compound, the “MASP-2 vs. thrombin selectivity” value [4] was “**** (≥100-fold)” and the Ki ([5]; read-out: mMASP-2 Ki) was less than 500 nM.
Cc1nc(N)ccc1CNC(=O)[C@H](C)NC(=O)[C@H]1C[C@H](Cc2ccc(Cl)c(Br)c2)CN1 [compound 1451, (2R,4S)—N—((S)-1-(((6-Amino-2-methylpyridin-3-yl)methyl)amino)-1-oxopropan-2-yl)-4-(3-bromo-4-chlorobenzyl)pyrrolidine-2-carboxamide Di-trifluoroacetate salt] was tested, and the IC50 [6] was 0.5 to 5 µM, the Ki ([3]; Thrombin Ki (μM)) was 10 to 25 µM and the Ki ([4]; read-out: MASP-2 Ki) was less than 500 nM. For the same compound, the “MASP-2 vs. thrombin selectivity” value [4] was “**** (≥100-fold)” and the Ki ([5]; read-out: mMASP-2 Ki) was less than 500 nM.
Compound Cc1nc(N)ccc1CNC(=O)[C@H](C)NC(=O)[C@H]1C[C@H](Cc2cccc(Br)c2)CN1 [compound 1452, (2R,4S)—N—((S)-1-(((6-Amino-2-methylpyridin-3-yl)methyl)amino)-1-oxopropan-2-yl)-4-(3-bromobenzyl)pyrrolidine-2-carboxamide Dihydrochloride] has an IC50 [6] of 0.5 to 5 µM, a Ki ([3]; Thrombin Ki (μM)) of 0.5 to 2.5 µM and a Ki ([4]; read-out: MASP-2 Ki) of less than 500 nM. The “MASP-2 vs. thrombin selectivity” value [4] was “**** (≥100-fold)” and the Ki ([5]; read-out: mMASP-2 Ki) was less than 500 nM.
COc1ccc2cc(C[C@@H]3CN[C@@H](C(=O)N[C@@H](C)C(=O)NCc4ccc(N)nc4C)C3)ccc2c1 [compound 1453, (2R,4S)—N—((S)-1-(((6-Amino-2-methylpyridin-3-yl)methyl)amino)-1-oxopropan-2-yl)-4-((6-methoxynaphthalen-2-yl)methyl)pyrrolidine-2-carboxamide Dihydrochloride] showed an IC50 [6] of less than 0.05 µM, a Ki ([3]; Thrombin Ki (μM)) of 10 to 25 µM and a Ki ([4]; read-out: MASP-2 Ki) of less than 500 nM. For the same compound, the “MASP-2 vs. thrombin selectivity” value [4] was “**** (≥100-fold)” and the Ki ([5]; read-out: mMASP-2 Ki) was less than 500 nM.
Cc1nc(N)ccc1CNC(=O)[C@H](C)NC(=O)[C@H]1C[C@H](Cc2ccc(Cl)s2)CN1 [compound 1454, (2R,4R)—N—((S)-1-(((6-Amino-2-methylpyridin-3-yl)methyl)amino)-1-oxopropan-2-yl)-4-((5-chlorothiophen-2-yl)methyl)pyrrolidine-2-carboxamide Dihydrochloride] gave an IC50 [6] of 0.5 to 5 µM, a Ki ([3]; Thrombin Ki (μM)) of 0.5 to 2.5 µM and a Ki ([4]; read-out: MASP-2 Ki) of less than 500 nM. The “MASP-2 vs. thrombin selectivity” value [4] was “*** (≥25 to <100-fold)” and the Ki ([5]; read-out: mMASP-2 Ki) was less than 500 nM.
For Cc1cc(Cl)cc(CNC(=O)[C@H](C)NC(=O)[C@H]2C[C@H](Cc3ccc(Cl)s3)CN2)c1O [compound 1456, (2R,4R)—N—((S)-1-((5-Chloro-2-hydroxy-3-methylbenzyl)amino)-1-oxopropan-2-yl)-4-((5-chlorothiophen-2-yl)methyl)pyrrolidine-2-carboxamide Dihydrochloride], the IC50 [6] was 5 to 50 µM, the Ki ([3]; read-out: Thrombin Ki) was greater than 25 µM and the Ki ([4]; read-out: MASP-2 Ki) was less than 500 nM. For the same compound, the Ki ([5]; read-out: mMASP-2 Ki) was 500 to 2500 nM.
For Cc1nc(N)ccc1CNC(=O)Cn1c(C)cnc(NCCc2ccccc2)c1=O [compound 1488], the IC50 [6] was 0.5 to 5 µM, the Ki ([3]; read-out: Thrombin Ki) was less than 0.5 µM and the Ki ([4]; read-out: MASP-2 Ki) was less than 500 nM. The “MASP-2 vs. thrombin selectivity” value [4] was “−− (<1.0-fold)” and the Ki ([5]; read-out: mMASP-2 Ki) was 2500 to 10000 nM.
Cc1cnc(NCCc2ccccc2)c(=O)n1CC(=O)NCc1cnc2[nH]cc(Cl)c2c1 [compound 1490, N-((3-Chloro-1H-pyrrolo[2,3-b]pyridin-5-yl)methyl)-2-(6-methyl-2-oxo-3-(phenethylamino)pyrazin-1(2H)-yl)acetamide Acetate salt] gave an IC50 [6] of 5 to 50 µM, a Ki ([3]; read-out: Thrombin Ki) of less than 0.5 µM and a Ki ([4]; read-out: MASP-2 Ki) of less than 500 nM. The “MASP-2 vs. thrombin selectivity” value [4] was “−− (<1.0-fold)” and the Ki [5] was 2500 to 10000 nM.
Cc1cnc(NCCc2ccccc2)c(=O)n1CC(=O)NCc1ccc2c(N)nccc2c1 [compound 1491, N-((1-Aminoisoquinolin-6-yl)methyl)-2-(6-methyl-2-oxo-3-(phenethylamino)pyrazin-1(2H)-yl)acetamide Trifluoroacetamide salt] gave an IC50 [6] of 5 to 50 µM, a Ki ([3]; read-out: Thrombin Ki) of less than 0.5 µM and a Ki [4] of 500 to 2500 nM. The “MASP-2 vs. thrombin selectivity” value [4] was “−− (<1.0-fold)” and the Ki ([5]; read-out: mMASP-2 Ki) was less than 500 nM.
In the case of Cc1cnc(NCCc2ccccc2)c(=O)n1CC(=O)NCc1ccc2nc(N)[nH]c2c1 [compound 1492, N-((2-Amino-1H-benzo[d]imidazol-6-yl)methyl)-2-(6-methyl-2-oxo-3-(phenethylamino)pyrazin-1(2H)-yl)acetamide Trifluoroacetamide salt], the IC50 [6] is reported as 0.05 to 0.5 µM, the Ki ([3]; read-out: Thrombin Ki) is reported as less than 0.5 µM and the Ki ([4]; read-out: MASP-2 Ki) is reported as less than 500 nM. The “MASP-2 vs. thrombin selectivity” value [4] was “** (≥5.0 to <25-fold)” and the Ki ([5]; read-out: mMASP-2 Ki) was less than 500 nM.
